Source: patent US4029805A, “Semisynthetic penicillins” (Hoffmann-La Roche Inc., priority 1976, dated 1977)
Counter-ions that a name gives are not always drawn. Like-named read-outs stand apart in the source and are kept apart here.

Legend:
S. schottmuelleri = assay: Curative dose against systemic S. schottmuelleri infection; type: in vivo, mice; settings: Mus musculus, read-out: CD50 (the source's name)
K. pneumoniae = assay: Curative dose against systemic K. pneumoniae infection; type: in vivo, mice; settings: Klebsiella pneumoniae, in Mus musculus, read-out: CD50 (the source's name)
E. coli [1] = assay: Curative dose against systemic E. coli infection; type: in vivo, mice; settings: Escherichia coli, in Mus musculus, po
Protocol: (§1) In order to illustrate the relative activity of the compounds of this invention as compared to amoxicillin, the compounds, represented by the acetaldehyde derivative, were tested orally against systemic bacterial infections of mice with the following results. The CD50 is the curative dose in 50% of the animals treated against a challenge organism.

D. pneumoniae = assay: Curative dose against systemic D. pneumoniae infection; type: in vivo, mice; settings: Streptococcus pneumoniae, in Mus musculus, read-out: CD50 (the source's name)
S. pyogenes = assay: Curative dose against systemic S. pyogenes infection; type: in vivo, mice; settings: Streptococcus pyogenes, in Mus musculus, read-out: CD50 (the source's name)
S. typhosa [2] = assay: Curative dose against systemic S. typhosa infection; type: in vivo, mice; settings: Mus musculus, po, read-out: CD50 (the source's name)
Protocol: as §1

physchem = type: physicochemical; settings: 5% dextrose solution, read-out: antibacterial activity retained in a 24 hour period
Protocol: The antibacterial activity retained in a 24 hour period by the acetaldehyde derivative when dissolved in 5% dextrose solutions at 0.5 and 1.0% concentration is 83% and 80% respectively. The sodium salt of amoxicillin retains less than 40% activity under the same conditions.

S. aureus = assay: Curative dose against systemic S. aureus infection; type: in vivo, mice; settings: Staphylococcus aureus, in Mus musculus, read-out: CD50 (the source's name)
S. typhosa [3] = assay: Curative dose against systemic S. typhosa infection; type: in vivo, mice; settings: Mus musculus, sc, read-out: CD50 (the source's name)
[4] = Stability in aqueous solution at room temperature, microbiological assay using B. subtilis; settings: water
Protocol: To illustrate the relative stability of the compounds of this invention in aqueous solution at room temperature the sodium salts of the compounds were tested as 20% by weight aqueous solutions for activity by microbiological assay using B. subtilis as the test organism and compared to 10% and 20% aqueous solutions of amoxicillin sodium salt and 10% aqueous solution of the acetone derivative of amoxicillin.

E. coli [5] = assay: Curative dose against systemic E. coli infection; type: in vivo, mice; settings: Escherichia coli, in Mus musculus, read-out: CD50 (the source's name)
[6] = Table 3(b), po, acetaldehyde derivative comparison
[7] = Table 3(b), sc, acetaldehyde derivative comparison
[8] = Table 3(b), acetaldehyde derivative comparison
[9] = po, butyraldehyde derivative comparison
[10] = sc, butyraldehyde derivative comparison
[11] = butyraldehyde derivative comparison

CC1N[C@H](c2ccc(O)cc2)C(=O)N1[C@@H]1C(=O)N2[C@@H]1SC(C)(C)[C@@H]2C(=O)O (stereo partly drawn) [Acetaldehyde derivative]
ED50 (S. schottmuelleri; [6]): 6.4 mg/kg
ED50 (S. schottmuelleri; [7]): 3.4 mg/kg
ED50 (K. pneumoniae; [6]): 17 mg/kg
ED50 (K. pneumoniae; [7]): 11 mg/kg
ED50 (E. coli [1]; Table 3(b), acetaldehyde derivative comparison, read-out: CD50 (the source's name)): 4.6 mg/kg
ED50 (E. coli [1]; read-out: CD50, Table 2, PO, mice): 5 mg/kg
LD50 (in vivo; ip): 9200 mg/kg
LD50 (in vivo; po): > 10000 mg/kg
LD50 (in vivo; sc): > 10000 mg/kg
ED50 (D. pneumoniae; [6]): 12 mg/kg
ED50 (D. pneumoniae; [7]): 0.76 mg/kg
ED50 (S. pyogenes; [6]): 1.7 mg/kg
ED50 (S. pyogenes; [7]): < 0.05 mg/kg
ED50 (S. typhosa [2]; [8]): 8.8 mg/kg
remaining at 24 h (physchem; 0.5% concentration): 83%
remaining at 24 h (physchem; 1.0% concentration): 80%
ED50 (S. aureus; [6]): 0.77 mg/kg
ED50 (S. aureus; [7]): 1.3 mg/kg
ED50 (S. typhosa [3]; [8]): 6.5 mg/kg
remaining at 1 h [4]: 100%
remaining at 2 h [4]: 99%
remaining at 4 h [4]: 99%
remaining at 6 h [4]: 98%
remaining at 6.5 h [4]: 98%
remaining at 24 h [4]: 94%
ED50 (E. coli [5]; sc, Table 3(b), sc, acetaldehyde derivative comparison): 6.9 mg/kg

CC1(C)S[C@@H]2[C@H](NC(=O)[C@H](N)c3ccc(O)cc3)C(=O)N2[C@H]1C(=O)O [Amoxicillin sodium salt]
remaining at 24 h (physchem; 5% dextrose solutions, same conditions (0.5 and 1.0%)): < 40%
remaining at 1 h [4]: 100%
remaining at 2 h [4]: 91%
remaining at 4 h [4]: 65%
remaining at 6 h [4]: 59%
remaining at 6.5 h [4]: 58%
remaining at 24 h [4]: 38%

CCCC1N[C@H](c2ccc(O)cc2)C(=O)N1[C@@H]1C(=O)N2[C@@H]1SC(C)(C)[C@@H]2C(=O)O (stereo partly drawn) [Butyraldehyde derivative]
ED50 (S. schottmuelleri; [9]): 5.7 mg/kg
ED50 (S. schottmuelleri; [10]): 3.2 mg/kg
ED50 (K. pneumoniae; [9]): 46 mg/kg
ED50 (K. pneumoniae; [10]): 16 mg/kg
LD50 (in vivo; ip): 7270 mg/kg
LD50 (in vivo; po): > 10000 mg/kg
LD50 (in vivo; sc): 10000 mg/kg
ED50 (D. pneumoniae; [9]): 2.1 mg/kg
ED50 (D. pneumoniae; [10]): 2.5 mg/kg
ED50 (S. pyogenes; [9]): < 0.05 mg/kg
ED50 (S. pyogenes; [10]): 0.01 mg/kg
ED50 (S. typhosa [2]; [11]): 2.9 mg/kg
ED50 (S. aureus; [9]): 0.2 mg/kg
ED50 (S. aureus; [10]): 0.11 mg/kg
ED50 (S. typhosa [3]; [11]): 0.85 mg/kg
remaining at 1 h [4]: 95%
remaining at 2 h [4]: 83%
remaining at 6 h [4]: 83%
remaining at 24 h [4]: 70%
ED50 (E. coli [5]; [9]): 12 mg/kg
ED50 (E. coli [5]; [10]): 3.9 mg/kg
